Measurements: patent publication EP0737691A1, “Bombesin analogs” (BIOMEASURE, INC., priority 1995, dated 1996)
Like-named read-outs stand apart in the source and are kept apart here. Square brackets hold non-standard residues; d marks the D form. Peptide text beside a SMILES is read from it. Nle = CCCC[C@H](N)C(=O)O; βAla = NCCC(=O)O

Experiments:
[1] = target: T1, rat NMB receptor (Rattus norvegicus, UniProt P24053); experiment: NMB Receptor Binding Assay (membranes of BALB-3T3 fibroblasts transfected with the rat NMB receptor); conditions: for IC50: affinity for the NMB receptor, BALB-3T3 fibroblasts transfected with the rat NMB receptor, 30 min, 4°C
T1 construct: expressed in transfected cells; host or cells: BALB-3T3 (mouse) fibroblasts
T1 sequence (P24053 1-390): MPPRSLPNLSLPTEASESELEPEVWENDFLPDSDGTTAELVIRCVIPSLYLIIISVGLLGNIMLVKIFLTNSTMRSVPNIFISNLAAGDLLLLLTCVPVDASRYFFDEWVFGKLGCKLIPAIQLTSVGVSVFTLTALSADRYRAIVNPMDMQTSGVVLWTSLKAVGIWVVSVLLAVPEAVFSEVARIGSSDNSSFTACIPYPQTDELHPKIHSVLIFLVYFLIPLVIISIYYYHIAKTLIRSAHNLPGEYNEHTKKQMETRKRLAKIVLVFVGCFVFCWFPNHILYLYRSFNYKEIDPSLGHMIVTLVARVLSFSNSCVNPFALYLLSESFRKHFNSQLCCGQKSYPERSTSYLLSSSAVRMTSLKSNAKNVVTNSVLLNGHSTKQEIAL
Description: The procedure for transfecting the rat NMB receptor into BALB-3T3 fibroblasts is discussed in Wada, et al., Neuron, […] (1991) and Benya, et al., Mol. Pharmacol., 42:1058 (1992).
(§1) Membranes for the bombesin receptor binding assay were obtained by homogenizing BALB-373 fibroblasts, transfected with the rat NMB receptor (Polytron, setting 6, 15 sec) in ice-cold 50 mM Tris-HCl (Buffer A) and centrifuging twice at 39,000 x g (10 min), with an intermediate resuspension in fresh Buffer A. The final pellets were resuspended in 50 mM Tris-HCl, containing 0.1 mg/ml bacitracin, and 0.1% BSA (Buffer B), and held on ice for the receptor binding assay.
For assay, aliquots (0.4 ml) were incubated with 0.05 ml [^125 I-Tyr^4] bombesin (∼2200 Ci/mmol, New England Nuclear) and Buffer B, with and without 0.05 ml of unlabeled competing analogs. After a 30 min incubation (4°C), the bound [^125 I-Tyr^4] bombesin was separated from the free by rapid filtration through Whatman™ GF/B filters which had been previously soaked in 0.3% polyethyleneimine using a Brandel filtration manifold. The filters were then washed three times with 5 ml aliquots of ice-cold Buffer A. Specific binding was defined as the total [^125 I-Tyr^4] […] bound minus that bound in the presence of 1 µM unlabeled neuromedin-B.
Replacement of Gly at position A^6 in a prior art compound (i.e., litorin, leu-litorin, and [D-Phe^1, Leu^8,9] litorin) with β-Ala led unexpectedly to a great increase in their affinity for the NMB receptor. […] Modifications at position A^1, A^8, or A^9 further increases the affinity. […]

[2] = target: T2, GRP receptor (Rattus norvegicus, UniProt P52500); experiment: GRP Receptor Binding Assay ([125I-Tyr4] bombesin displacement, AR42J cell membranes)
T2 construct: endogenous in cells; host or cells: Rat AR42J pancreatic acinar cells (membranes)
T2 sequence (P52500 whole entry): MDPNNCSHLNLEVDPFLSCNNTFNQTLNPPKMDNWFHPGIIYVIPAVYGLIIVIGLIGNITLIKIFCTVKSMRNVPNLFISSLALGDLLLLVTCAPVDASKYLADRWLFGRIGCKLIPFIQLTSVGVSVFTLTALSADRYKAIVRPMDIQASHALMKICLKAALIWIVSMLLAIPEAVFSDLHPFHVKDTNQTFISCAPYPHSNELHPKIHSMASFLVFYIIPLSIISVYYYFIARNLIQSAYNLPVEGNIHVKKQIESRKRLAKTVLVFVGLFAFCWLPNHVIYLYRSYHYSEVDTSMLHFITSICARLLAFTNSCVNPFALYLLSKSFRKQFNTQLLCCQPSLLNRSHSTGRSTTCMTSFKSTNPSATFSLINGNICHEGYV
Description: Rat AR42J pancreatic acinar cells were cultured in Dulbecco's modified Eagle's medium without antibiotics and supplemented with 10% (vol/vol) fetal calf serum. The incubation atmosphere consisted of 10% CO2-90% humidified air at 37°C.
as §1, with “AR42J cells” for “BALB-373 fibroblasts, transfected with the rat NMB receptor”, “sec)(Brinkman, Westbury, NY)” for “sec)”

[3] = system: R-3327/H prostate tumor; experiment: Assay on in vivo prostate tumor growth; parameters: species or system Copenhagen male rats; conditions: 200 mg/inj. s.c., B.I.D., 24 days; castrated rats with tumors escaped from castration inhibition; versus vehicle; after day 17; Fig. 1
Source text: The androgen responsive R-3327/H prostate tumor line was implanted into 38 testes-intact, syngeneic Copenhagen male rats. The tumored animals were individually staged for castration when their tumors reached a size approximating 235 mgs. Tumors were then staged for bombesin analogue treatment when two sequential tumor measurements indicated an "escape from castration inhibition" condition, as evidenced by an increase in tumor growth rate. This transition of the prostate tumor tissue from androgen sensitive to androgen insensitive occurred without surgical perturbation of the tumor, thus providing a clinically realistic model for evaluating the anti-prostate tumor activity of the bombesin analogues.
The tumored animals were separated into two groups of 19 animals. Treatment was only initiated when tumors reached the "escape from castration inhibition" condition. Group 1 received 0.2 ml/inj. of 2.6% glycerol/water vehicle, (s.c., B.I.D.). Group 2 received a […]. of Analog #5 (s.c., B.I.D.). […] Tumors were measured using Vernier calipers and the volume was calculated using the following formula: (0.5)(length)(width)^2
Fig. 1 illustrates the tumor growth inhibitory effect of the treatments in Group 1 and Group 2. Relative tumor volume was calculated by the following formula: (Tumor Volume (measuring day))/(Tumor Volume (staging day))x 100 [formula] […]

[4] = affinity for the GRP receptor, [125I-Tyr4] bombesin, rat AR42J pancreatic acinar cell membranes, 30 min, 4°C, read-out: IC50

Row | SMILES | IC50 [1] [nM] | IC50 [2, 4] [nM] | binding affinity on the NMB receptor ([1]; result in words) | IC50 [2] [nM] | increase in the affinity for the NMB receptor ([1]; fold increase compared with litorin or [D-Phe1, Leu8,9] litorin) [time] | Rate of tumor growth [3]
1 | CCCC[C@H](NC(=O)[C@H](Cc1ccccc1)NC(=O)[C@H](Cc1c[nH]cn1)NC(=O)CCNC(=O)[C@@H](NC(=O)[C@H](C)NC(=O)[C@H](Cc1c[nH]c2ccccc12)NC(=O)[C@H](CCC(N)=O)NC(=O)[C@H](N)Cc1ccccc1)C(C)C)C(N)=O [Analog #1, H-D-Phe-Gln-Trp-Ala-Val-β-Ala-His-Phe-Nle-NH2] (H-[dF]QWAV[βAla]HF[Nle]-NH2) | 1 | 0.2 |  |  |  | 
2 | CC(C)C[C@H](NC(=O)[C@H](CC(C)C)NC(=O)[C@H](Cc1c[nH]cn1)NC(=O)CNC(=O)[C@@H](NC(=O)[C@H](C)NC(=O)[C@H](Cc1c[nH]c2ccccc12)NC(=O)[C@H](CCC(N)=O)NC(=O)[C@@H]1CCC(=O)N1)C(C)C)C(N)=O [Leu-Litorin, p-Glu-Gln-Trp-Ala-Val-Gly-His-Leu-Leu-NH2, reference compound] | > 10000 |  | almost no binding affinity | 23 |  | 
3 | CC(C)C[C@H](NC(=O)[C@H](CC(C)C)NC(=O)[C@H](Cc1c[nH]cn1)NC(=O)CCNC(=O)[C@@H](NC(=O)[C@H](C)NC(=O)[C@H](Cc1c[nH]c2ccccc12)NC(=O)[C@H](CCC(N)=O)NC(=O)[C@H](N)Cc1ccccc1)C(C)C)C(N)=O [Analog #2, H-D-Phe-Gln-Trp-Ala-Val-β-Ala-His-Leu-Leu-NH2] (H-[dF]QWAV[βAla]HLL-NH2) | 41 | 1 |  |  | 11.7 | 
4 | CCCC[C@H](NC(=O)[C@H](Cc1ccccc1)NC(=O)[C@H](Cc1cnc[nH]1)NC(=O)CCNC(=O)[C@@H](NC(=O)[C@H](C)NC(=O)[C@H](Cc1c[nH]c2ccccc12)NC(=O)[C@H](CCC(N)=O)NC(=O)[C@H](N)Cc1ccc(O)cc1)C(C)C)C(N)=O [Analog #3, H-D-Tyr-Gln-Trp-Ala-Val-β-Ala-His-Phe-Nle-NH2] (H-[dY]QWAV[βAla]HF[Nle]-NH2) | 1 |  |  |  |  | 
5 | CCCC[C@H](NC(=O)[C@H](Cc1ccccc1)NC(=O)[C@H](Cc1c[nH]cn1)NC(=O)CCNC(=O)[C@@H](NC(=O)[C@H](C)NC(=O)[C@H](Cc1c[nH]c2ccccc12)NC(=O)[C@H](CCC(N)=O)NC(=O)[C@H](N)Cc1c[nH]c2ccccc12)C(C)C)C(N)=O [Analog #4, H-D-Trp-Gln-Trp-Ala-Val-β-Ala-His-Phe-Nle-NH2] (H-[dW]QWAV[βAla]HF[Nle]-NH2) | 0.04 | 0.1 |  |  |  | 
6 | CCCC[C@H](NC(=O)[C@H](CC(C)C)NC(=O)[C@H](Cc1c[nH]cn1)NC(=O)CCNC(=O)[C@@H](NC(=O)[C@H](C)NC(=O)[C@H](Cc1c[nH]c2ccccc12)NC(=O)[C@H](CCC(N)=O)NC(=O)[C@H](N)Cc1ccccc1)C(C)C)C(N)=O [Analog #5, H-D-Phe-Gln-Trp-Ala-Val-β-Ala-His-Leu-Nle-NH2] (H-[dF]QWAV[βAla]HL[Nle]-NH2) | 8.9 | 2.1 |  |  |  | significantly (p < 0.05) inhibited
7 | CSCC[C@H](NC(=O)[C@H](Cc1ccccc1)NC(=O)[C@H](Cc1c[nH]cn1)NC(=O)CNC(=O)[C@@H](NC(=O)[C@H](C)NC(=O)[C@H](Cc1c[nH]c2ccccc12)NC(=O)[C@H](CCC(N)=O)NC(=O)[C@@H]1CCC(=O)N1)C(C)C)C(N)=O [Litorin, p-Glu-Gln-Trp-Ala-Val-Gly-His-Phe-Met-NH2, reference compound] | 1.66 |  |  | 2.4 |  | 
8 | CC(C)C[C@H](NC(=O)[C@H](CC(C)C)NC(=O)[C@H](Cc1c[nH]cn1)NC(=O)CNC(=O)[C@@H](NC(=O)[C@H](C)NC(=O)[C@H](Cc1c[nH]c2ccccc12)NC(=O)[C@H](CCC(N)=O)NC(=O)[C@H](N)Cc1ccccc1)C(C)C)C(N)=O [[D-Phe^1, Leu^8,9] litorin, H-D-Phe-Gln-Trp-Ala-Val-Gly-His-Leu-Leu-NH2, reference compound] | 480 |  |  | 2.8 |  | 
